One test has as its system HrpN protein. Put plainly: HrpN protein expression (FIG. 15). The format is cell-based, Dickeya dadantii 3937. Particulars: MM supplemented with 0.1 mM (FIG. 15). An excerpt:
To further elucidate whether T3SS gene expression is mainly regulated through the HrpX/Y-HrpS-HrpL regulatory pathway, the expression of hrpA and hrpN in wild-type Ech3937 and hrpX (WPP67), hrpY (WPP92), hrpS (WPP90), and hrpL (WPP96) mutants in MM were examined. […] Similar expression of hrpA and hrpN was observed among WPP67, WPP92, WPP90 and WPP96 carrying phrpA and phrpN grown in MM and MM supplemented with PCA. […] Since PCA represses the expression of several T3SS genes such as hrpN, the effect of PCA on protein production of HrpN was further examined.

In a further test the test system is hrpW mRNA. Put plainly: Real-time PCR of hrpW in DC3000. Format: cell-based, Pseudomonas syringae pv. tomato DC3000. To be noted: HIM supplemented with 250 μM, 9 h. Here is the method:
DC3000 was cultured in KB medium overnight at 28° C. and subcultured in HIM medium supplemented with DMSO or with 250 μM TCA for 9 h. Total bacterial RNA was isolated using RNeasy Mini Kit (QIAGEN, Valencia, Calif.) and treated with Turbo DNA-free DNase kit (Ambion, Austin, Tex.). cDNA was synthesized using iScript cDNA Synthesis Kit (Bio-Rad, Hercules, Calif.) from 0.8 μg of total RNA. The Real Master Mix SYBR ROX (5 PRIME, Gaithersburg, Md.) was used for real-time PCR reactions to quantify the cDNA level of target genes in different samples. Data were collected by the Opticon 2 system (Bio-Rad) and analyzed using Relative Expression Software Tool as described by Pfaffl and associates (Pfaffl et al. 2002). Two housekeeping genes, gyrA (PSPTO1745) and gap1 (PSPTO1287) were used as endogenous controls for data analysis. The PCR efficiencies of the primers are: gyrA, 1.93; gap1, 2.08; and hrpW, 1.93.
In general terms: In qPCR the cycle at which signal appears reflects the starting amount.

For test [1], the system named is Pseudomonas syringae pv. tomato DC3000 (HR elicitation). Put plainly: Hypersensitive response (HR) assay in tobacco leaves. Format: in vivo. Particulars: Nicotiana tabacum cv. Xanthi, 18 hours post-infiltration. Here is the method: Bacterial cells from overnight cultures grown in KB broth were resuspended in sterile dH2O. Cell suspensions were mixed with chemicals and allowed to sit for 30 minutes before plant inoculation. Nicotiana tabacum cv. Xanthi plants were used for HR assays. Tobacco leaves were pressure infiltrated by use of a needless syringe (Fu et al. 2006) with 1×10^8 cells/ml and 25 μM, 50 μM, 100 μM, 250 μM, or 500 μM TCA. Plants were photographed and assessed for macroscopic tissue collapse indicative of HR 18 h post-inoculation.
In DC3000, mutations in genes which encode components of the T3SS result in the inability to elicit HR in non-hosts (Collmer et al. 2000). Since TCA represses expression of hrpA (a major component of the T3SS) in vitro, the ability of TCA to suppress HR in planta was examined. DC3000 (OD600=0.1) with 25 μM, 50 μM, 100 μM, 250 μM, or 500 μM of TCA in DMSO was injected into leaves of tobacco (Nicotiana tabacum cv. Xanthi). Concentrations of DMSO which correspond to similar amounts of TCA were also injected into the tobacco plants as negative controls. Tobacco leaves were assessed for HR symptoms 18 hours post-infiltration. No visible signs of tissue damage or HR were observed when DMSO or TCA was separately infiltrated into the tobacco leaves (data not shown). […] This effect is most likely due to lack of a functional T3SS.

The test system of the next test is hrpY mRNA. Put plainly: qRT-PCR relative mRNA level of hrpY. Format: cell-based, Dickeya dadantii 3937. To be noted: 0.1 mM in MM. How it is done: Bacterial strains were grown in MM. Total RNA from the bacterial cells was isolated by using the TRI reagent method (Sigma, Mo.) and treated with Turbo DNA-free DNase kits (Ambion, Tex.) as described (Peng et al., 2006). An iScript cDNA Synthesis Kit (Bio-Rad, CA) was used to synthesize cDNA from 0.5 μg of treated total RNA. The Real Master Mix (Eppendorf, Westbury, N.Y.) was used for qRT-PCR reaction to quantify the cDNA level of target genes in different samples. The rplU was used as the endogenous control for data analysis. qRT-PCR data were analyzed using Relative Expression Software Tool as described (Pfaffl, M. W., Horgan, G. W., and Dempfle, L. (2002) Relative expression software tool (REST) for group-wise comparison and statistical analysis of relative expression results in real-time PCR. Nucleic Acids Res 30:e36.).

The next test concerns P. aeruginosa. The test is described as follows: P. aeruginosa bacterial growth with compound. Format: cell-based, P. aeruginosa PA01. Here is the method:
To identify T3SS inhibitors of PA01, a promoter-probe vector pPROBE-AT containing the promoterless green fluorescent protein (gfp) gene was used to construct an exoS promoter-gfp plasmid reporter, pATexoS. PA01 containing pATexoS was cultured in T3SS-inducing medium containing dimethyl sulfoxide (DMSO; solvent of chemical compounds), or supplemented with 250 μM of each compound, and promoter activity was assessed at 6 h by measuring GFP intensity using flow cytometry. 101 compounds (58 synthesized and 43 commercially available) were screened. Compounds 027, 032, 101, and 149 repressed exoS expression at the final concentration of 250 μM by at least one standard deviation below the sample average (Z score≦−1) (FIG. 37 A-E). Z score (or standard score) indicates how many standard deviations an observation or datum is above or below the mean [z=(x−μ)/σ, where x is a raw score to be standardized, μ is the mean of the population, and σ is the standard deviation of the population].
To determine the effective concentration of compounds, the dose-dependent effect of potential inhibitors on exoS expression and bacterial growth were tested. P. aeruginosa cells carrying pATexoS were pre-cultured in LB supplemented with 200 mM NaCl and transferred to fresh LB with 200 mM NaCl, 10 mM NTA, and various concentrations of compounds (20, 50, 100, and 250 μM) or DMSO for 6 h. […] At 50 μM dosage, both 027 and 101 inhibited exoS expression at similar levels, and this inhibitory effect increased as compound concentration increased (FIG. 38A and Table 17). […] These inhibitions/inductions of exoS expression are caused by the shifting bacterial population between low-state expression cells and high-state expression cells (FIG. 40).

The next test has as its system rsmB RNA. Put plainly: Northern blot analysis of rsmB RNA. Format: cell-based, D. dadanti 3937. To be noted: bacterial cells cultured in media supplemented with compound (FIG. 23). From the text:
Northern blot analysis was used to quantify rsmB RNA of D. dadanti 3937.

Turning to `O=C(O)/C=C/c1ccc(O)cc1` [Compound 004, para-coumaric acid], the “HrpN protein amount compared with MM alone, in words” value in the test with HrpN protein was “a lower amount of HrpN”.

In the case of `O=C(O)/C=C/c1ccccc1` [Compound 001, trans-cinnamic acid], the “hrpW mRNA relative expression ratio vs HIM alone” value in the test on hrpW mRNA was determined as 0.07. The results for the “elicitation of HR by DC3000 in tobacco leaves, in words” value in test [1] (infiltrated with 100 μM) and in test [1] (infiltrated with 250 μM) were “unable to completely block HR” and “completely suppressed”, respectively.

For the molecule `O=C(O)/C=C/c1ccccc1O` [Compound 006, Ortho-coumaric acid], the “hrpY mRNA compared with MM alone, in words” value in the test with hrpY mRNA is reported as “No significant difference”.

Consider `O=C(/C=C/c1ccc(O)cc1)NO` [Compound 103, trans-4-Hydroxycinnamohydroxamic acid], for which, in the test with P. aeruginosa (P. aeruginosa, 250 μM), the “effect on bacterial growth, in words” value was “some inhibition on bacterial growth”. For the same molecule, in the test on P. aeruginosa (various concentrations (up to 250 μM for 101, up to 500 μM for 027), FIG. 39), the “dose-dependent effect on P. aeruginosa growth, in words” value was “inverse relationship was observed between the compound concentration and bacterial growth”. Further, the “rsmB RNA level, Northern blot, in words” value in the test on rsmB RNA is on record as “reduced rsmB mRNA”.

The values are drawn from patent US9260382B2, “Methods of reducing virulence in bacteria” (priority 2010, dated 2016).
